Reference: PubChem BioAssay AID2060599 (Molecular Pharmacology Branch, DTP, NCI, 2025)

System: 817829-284-R-J1-PDC complex spheroids, viability
Assay: Anticancer human tumor 817829-284-R-J1-PDC patient-derived colon adenocarcinoma cell line growth inhibition [CLK]
Details: for IC50: curve of first compound; for viability, T/C: stronger effect = lower value
Excerpt: A high-throughput screen of multi-cell type tumor spheroids was designed to identify active combinations of […] and targeted small molecules. Complex spheroids include a stromal component modeled by human endothelial cells (HUVEC) and fibroblasts modeled by human mesenchymal stem cells (MSCs). The concentration ranges selected for each drug and investigational agent were based upon clinically achievable concentrations if the clinical Cmax of the agent was known.
Compounds. The drugs and investigational agents: cirtuvivint (SM08502; NSC835563), CC-671 (NSC850746), vemurafenib (NSC761431), tapotoclax (NSC804041), sotorasib (NSC818433), adagrasib (NSC831453), MRTX-1133 (NSC836407), BAY2416964 (NSC825713), copanlisib (NSC816437), inavolisib (NSC800729), abemaciclib (NSC768073), osimertinib (NSC779217), entinostat (NSC756642), eltanexor (KPT-8602, NSC794443), venetoclax (NSC766270), ceralasertib (NSC777638), bortezomib (NSC756655), olaparib (NSC753686), talazoparib (NSC767125), alisertib (NSC759677), peposertib (NSC802822), gemcitabine (NSC613327), 5-fluorouracil (NSC19893), SN-38 (NSC673596), oxaliplatin (NSC266046), paclitaxel (NSC125973), and doxorubicin (NSC123127), were obtained from the National Cancer Institute (NCI) Developmental Therapeutics Program Chemical Repository. The FDA-approved anticancer drug set is available from the Developmental Therapeutics Program at https://dtp.cancer.gov/organization/dscb/obtaining/available plates.htm. […] The stock solutions were prepared in dimethyl sulfoxide (DMSO, Sigma-Aldrich, St. Louis, MO, cat. D2650), except for the platinum complexes which were prepared in saline (Quality Biological, Gaithersburg, MD, cat. 114-055-101), at 800-fold the tested concentration and stored at -70 degrees C prior to their use. All drugs and investigational agents were tested over a range starting from a high concentration at or near the clinical Cmax and decreasing in half-log increments. If the clinical Cmax for an agent had not been determined, the highest concentration tested was 10 microM.
Cell Culture. All cells were maintained in an incubator at 37 degrees C and 5% CO2 with 95% humidity. The PDC lines were cultured according to standard operating procedures established by the NCI PDMR. Briefly, all PDCs were thawed and cultured in Matrigel-coated flasks prepared with a working solution of 1X Ham's F-12 nutrient mix, without supplementation (Invitrogen, Waltham, MA, cat. 11765054), 100 U/mL penicillin-streptomycin (Invitrogen, cat. 15140122), and 2.5% Matrigel (Corning Inc., Corning, NY, cat. 354248) for the first three passages. The 947758-054-R-J2-PDC line was cultured in 6B/Colon 1A media, which includes advanced DMEM/F-12 (Thermo Fisher Scientific, cat. 12634028), 10 mM HEPES (Thermo Fisher Scientific, cat. 15630080), 1X GlutaMAX supplement (Thermo Fisher Scientific, cat. 35050061), 0.1 mg/mL primocin (InvivoGen, cat. ant-pm-2), 10% defined fetal bovine serum, heat inactivated (HyClone Laboratories Inc., cat. SH30070.03HI), 1.25 mM N-Acetyl-L-cysteine (Sigma-Aldrich, cat. A9165), 10 mM nicotinamide (Sigma-Aldrich, cat. N0636), 1X B-27 supplement (Thermo Fisher Scientific, cat. 17504044), 1X N-2 supplement (Thermo Fisher Scientific, cat. 17502048), and 10 microM Y-27632 dihydrochloride (Tocris Bioscience, cat. 1254). The 876862-298-R-J1-PDC was cultured in 6E media, which includes all 6B/Colon 1A media components plus 50% L-WRN conditioned media (ATCC, cat. CRL-3276), 50 ng/mL recombinant human EGF recombinant protein (hEGF; Thermo Fisher Scientific, cat. PHG0311), 10 ng/mL recombinant human fibroblast growth factor 10 (hGFG-10; PeproTech, cat. 100-26), 1 ng/mL recombinant human fibroblast growth factor 2 (hFGF-2; PeproTech, cat. 100-18B), and 1 µM prostaglandin E2 (PGE2; Tocris, cat. 2296). The 227483-062-R1-J1-PDC line was cultured in Panc media, containing all 6E components except hFGF-2, with the addition of 500 nM SB-431542 (Selleckchem, cat. S1067) and 10 nM gastrin (Tocris, cat. 3006). […]
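Note: spheroids exposed to the agents for seven days before readout.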

## CC(CO)NC(=O)c1cc(-c2ccc(Cl)cc2)nn(-c2cnn(C)c2)c1=O (configuration not stated) + CN1CCN(c2cc(C(=O)Nc3cc4cc(-c5cnn(C)c5)ccc4cn3)ccn2)CC1
Second compound 0.0316 µM
  IC50: 3.78 µM
Second compound 0.1 µM
  IC50: < 0.0316 µM
Second compound 0.316 µM
  IC50: < 0.0316 µM
Second compound 1 µM
  IC50: < 0.0316 µM
Second compound 3.16 µM
  IC50: < 0.0316 µM
Second compound 10 µM
  IC50: < 0.0316 µM
Second compound 0.0316 µM, first compound 0.0316 µM
  viability, T/C: 62.9%
Second compound 0.0316 µM, first compound 0.1 µM
  viability, T/C: 71.7%
Second compound 0.0316 µM, first compound 0.316 µM
  viability, T/C: 61.2%
Second compound 0.0316 µM, first compound 1 µM
  viability, T/C: 78.3%
Second compound 0.0316 µM, first compound 3.16 µM
  viability, T/C: 53.1%
Second compound 0.0316 µM, first compound 10 µM
  viability, T/C: 33%
Second compound 0.1 µM, first compound 0.0316 µM
  viability, T/C: 18.3%
Second compound 0.1 µM, first compound 0.1 µM
  viability, T/C: 15.8%
Second compound 0.1 µM, first compound 0.316 µM
  viability, T/C: 16.9%
Second compound 0.1 µM, first compound 1 µM
  viability, T/C: 15.6%
Second compound 0.1 µM, first compound 3.16 µM
  viability, T/C: 15.4%
Second compound 0.1 µM, first compound 10 µM
  viability, T/C: 14.6%
Second compound 0.316 µM, first compound 0.0316 µM
  viability, T/C: 2.63%
Second compound 0.316 µM, first compound 0.1 µM
  viability, T/C: 2.2%
Second compound 0.316 µM, first compound 0.316 µM
  viability, T/C: 2.62%
Second compound 0.316 µM, first compound 1 µM
  viability, T/C: 2.67%
Second compound 0.316 µM, first compound 3.16 µM
  viability, T/C: 2.25%
Second compound 0.316 µM, first compound 10 µM
  viability, T/C: 2.13%
Second compound 1 µM, first compound 0.0316 µM
  viability, T/C: 0.11%
Second compound 1 µM, first compound 0.1 µM
  viability, T/C: 0.12%
Second compound 1 µM, first compound 0.316 µM
  viability, T/C: 0.15%
Second compound 1 µM, first compound 1 µM
  viability, T/C: 0.11%
Second compound 1 µM, first compound 3.16 µM
  viability, T/C: 0.11%
Second compound 1 µM, first compound 10 µM
  viability, T/C: 0.13%
Second compound 3.16 µM, first compound 0.0316 µM
  viability, T/C: 0.18%
Second compound 3.16 µM, first compound 0.1 µM
  viability, T/C: 0.27%
Second compound 3.16 µM, first compound 0.316 µM
  viability, T/C: 0.22%
Second compound 3.16 µM, first compound 1 µM
  viability, T/C: 0.18%
Second compound 3.16 µM, first compound 3.16 µM
  viability, T/C: 0.29%
Second compound 3.16 µM, first compound 10 µM
  viability, T/C: 0.19%
Second compound 10 µM, first compound 0.0316 µM
  viability, T/C: 0.11%
Second compound 10 µM, first compound 0.1 µM
  viability, T/C: 0.14%
Second compound 10 µM, first compound 0.316 µM
  viability, T/C: 0.17%
Second compound 10 µM, first compound 1 µM
  viability, T/C: 0.21%
Second compound 10 µM, first compound 3.16 µM
  viability, T/C: 0.23%
Second compound 10 µM, first compound 10 µM
  viability, T/C: 0.19%
